According to patent publication US7943606B2, “Compositions and methods to control abnormal cell growth” (CanCure Laboratories, LLC, priority 2005, dated 2011):
Like-named read-outs stand apart in the source and are kept apart here.

Columns and labels:
[1] = test system: HL-60, HT-168, PC-3 and T47D human tumor xenografts; assay: Growth of HL-60, HT-168, PC-3 and T47D human tumor xenografts in mice; format: in vivo, mouse
Protocol: Tumor volume was calculated according to the generally accepted formula: V=a^2×b×π/6, where “a” and “b” mean the shortest and longest diameter, respectively, of the measured tumor.

CaCO-2 cells = assay: Viability of CaCO-2 colon adenocarcinoma cells (MTT assay); format: cell-based; conditions: Homo sapiens, Caco-2, 240 h, 10 days, read-out: reduction in the number of viable cells, CaCO-2
Protocol: (§1) To quantify cell death, around the time when significant and characteristic morphological changes took place, cells were pulse-labeled for 10 minutes with [^3H]thymidine to measure DNA activity as described elsewhere [Tomono, M. and Kiss, Z. (1995), “Ethanol enhances the stimulatory effects of insulin and insulin-like growth factor-I on DNA synthesis in NIH 3T3 fibroblasts,” Biochem. Biophys. Res. Commun. 208, 63-67]. Also, cells were collected as suspensions using trypsin, an established method in cell biology, followed by re-plating of cells in fresh tissue culture medium. If no viable cells were obtained after one week in culture, it meant that the cells at the time of re-plating were dead. Survival values obtained with untreated cells were considered 100%. For the determination of relative number of viable cells after treatments, in most cases the MTT assay was used. This calorimetric assay is based on the ability of living cells, but not dead cells, to reduce 3-(4,5-dimethyl thiazol-2-yl)-2,5-diphenyltetrazolium bromide [Carmichael, J, De Graff, W. G., Gazdar, A. F., Minna, J. D. and Mitchell, J. B. (1987), “Evaluation of tetrazolium-based semi-automated calorimetric assay: Assessment of chemosensitivity testing,” Cancer Res. 47, 936-942]. For this assay, cells were plated in 96-well plates, and the MTT assay was performed both in untreated and treated cell cultures. […]

[2] = Viability of NIH 3T3 normal fibroblasts (MTT assay); format: cell-based; conditions: mouse
Protocol: To quantify cell death, around the time when significant and characteristic morphological changes took place, cells were pulse-labeled for 10 minutes with [^3H]thymidine to measure DNA activity as described elsewhere [Tomono, M. and Kiss, Z. (1995), “Ethanol enhances the stimulatory effects of insulin and insulin-like growth factor-I on DNA synthesis in NIH 3T3 fibroblasts,” Biochem. Biophys. Res. Commun. 208, 63-67]. Also, cells were collected as suspensions using trypsin, an established method in cell biology, followed by re-plating of cells in fresh tissue culture medium. If no viable cells were obtained after one week in culture, it meant that the cells at the time of re-plating were dead. Survival values obtained with untreated cells were considered 100%. For the determination of relative number of viable cells after treatments, in most cases the MTT assay was used. This calorimetric assay is based on the ability of living cells, but not dead cells, to reduce 3-(4,5-dimethyl thiazol-2-yl)-2,5-diphenyltetrazolium bromide [Carmichael, J, De Graff, W. G., Gazdar, A. F., Minna, J. D. and Mitchell, J. B. (1987), “Evaluation of tetrazolium-based semi-automated calorimetric assay: Assessment of chemosensitivity testing,” Cancer Res. 47, 936-942]. For this assay, cells were plated in 96-well plates, and the MTT assay was performed both in untreated and treated cell cultures. The MTT assay also was performed at the start of treatments to allow assessment of proliferation rates in the control and treated cell cultures.
The NIH 3T3 (normal) mouse fibroblast, A431 human epidermoid adenocarcinoma, and MCF-7 human breast cancer cells were cultured in DMEM medium containing 10% FBS. The MEL-28 human melanoma cells were cultured in MEM medium containing 10% FBS. The HT-29 human colon adenocarcinoma cells were cultured in McCoy's 5a medium containing 10% FBS. The A549 human lung carcinoma cells were maintained in Ham's F12K medium containing 10% FBS. Cells were seeded into 96-well plates and treated at ˜70-90% confluency. Two hours before treatments the medium was changed for fresh 10% serum medium, and then the cells were incubated for 72 hours in the presence of 0-200 μM of CCompound1 (●) or CCompound3 (CCDTHT) (▴), as indicated. The MTT assay was used to determine cell viability after treatments. The values, shown in FIGS. 5A-5F and expressed as percent decrease in viability compared to the untreated control cells, are the mean±std. dev. of 8 incubations in one experiment. Similar results were obtained in another experiment.
NIH3T3, T47D, A-431, HT-29, and MEL-28 cells were cultured as indicated earlier. CaOV-3 human ovarian cancer cells were cultured in DMEM containing 10% FBS. ZR-75-1 human estrogen receptor-positive breast cancer cells were maintained in RPMI 1640 medium supplemented with 10% FBS. HTB-157 human fetal fibroblasts, MEL-24 human malignant melanoma cells, Hep G2 human hepatoblastoma cells, and CaCO-2 human colon adenocarcinoma cells were maintained in Eagles's MEM containing 10% FBS. MB-231 human estrogen receptor-negative breast cancer cells were maintained in Leibovitz's L-15 medium supplemented with 10% FBS. Cells were seeded into 96-well plates and treated at ˜70-90% confluency. Two hours prior to treatments the medium was changed for fresh 10% serum medium, and then the cells were incubated for 10 days in the absence (□) or presence of 50 μM CCDTHT ? or 100 μM CCDTHT (▪). The medium was changed and the cells were re-treated on days 3 and 6. The MTT assay was used to determine cell viability on day 10. The data, shown in FIG. 6, are the mean±std. dev. of 8 incubations in one experiment. (The experiment was repeated twice with similar results).
NIH 3T3, MEL-28, MEL-24, CaOV-3, ZR-75-1, and T47D cells were cultured as described above. The OVCAR human ovarian cancer cells were cultured in DMEM containing 10% FBS. Cells were seeded into 96-well plates and used at ˜60-80% confluency. […]

966 SK cells = assay: Viability of 966 SK skin fibroblasts (MTT assay); format: cell-based, human; conditions: 50 and 100 μM, 72 hours
Protocol: as §1

Q: What does the source list for CC[N+](C)(CC)CCOCc1ccc2sc3ccccc3c(=O)c2c1.[I-] [CCDTHT, N,N-diethyl-N-methyl-2-[(9-oxo-9H-thioxanthen-2-yl)methoxy]-ethanaminium iodide]?
A: weight loss ([1]; 50-400 μmole s.c. once daily): In none of the cases did CCDTHT cause significant weight loss; growth of each tumor (HL-60, HT-168, PC-3, T47D) ([1]; 200-400 μmole s.c. once daily): considerably reduced; cytotoxicity at 100 µM (CaCO-2 cells): ≤ 50%; cytotoxicity at 10 days, 100 μM [2]: ≤ 50%; solubility in water (Solubility in water): sufficiently soluble in water for injection; solubility in water (Solubility in water; listed as CCompound3): soluble in water; sensitivity compared with HaCaT cells, 966 SK fibroblasts (966 SK cells): significantly less sensitive
